These results are taken from patent US8802695B2, “Apoptosis signal-regulating kinase 1 inhibitors” (Takeda Pharmaceutical Company Limited, priority 2010, dated 2014).

By IC50 is commonly meant the concentration that inhibits the measured activity by half. A word on the melting point: it is the temperature, or range, at which the solid turns liquid.

Data set [1] concerns the target T1, ASK1 (Homo sapiens (Human), UniProt Q99683). Description: Scintillation assay for inhibitory effect against ASK1 (Example B; myelin basic protein substrate, [γ-32P]ATP). The following applies: 2.5 μM ATP solution, read-out: Enzyme Activity B IC50. The data set is classed as biochemical. The source says: (§1) The inhibitory effect of the compound of the invention on ASK1 may be evaluated by evaluating the phosphorylating activity of the enzyme on a known substrate with or without the presence of the test compound. Example B provides such an assay where myelin basic protein (Wako) is used as substrate and detection is by scintillation counting. It should be understood other substrates and detection mechanism may be used. A commercially available a kit, Cisbio's HTRF® KinEASE™ STK kit, has shown to be useful for evaluating ASK1 activity. The assay uses an anti-phosphoseric specific, Eu^3+-Cryptate labeled antibody to mark the phosphorylated product of ASK1 on a biotinylated kinase substrate, and detection is by time resolved fluorescence using XL665 labeled streptavidin. The fluorescence intensity is proportional to the amount of product formation. Example C provides the assay protocol.
Cloning of cDNA encoding human ASK1 was conducted by PCR using primers, 5′-[…] […]-3′ (SEQ ID NO: 1) and 5′-AAAGCGGCCGCTCAA […]-3′ (SEQ ID NO: 2), from human heart cDNA library (Becton, Dickinson and Company). The PCR product was subjected to agarose gel (1%) electrophoresis, a 2.2 kb DNA fragment containing an ASK1 gene was recovered from the gel, and then digested with restriction enzymes, NotI and SalI, and inserted into a plasmid pFASTBAC1 (Invitrogen) to prepare a plasmid pFB-ASK1. The insert was verified by sequencing. Recombinant baculovirus was prepared according to the procedure of the Bac-to-Bac baculovirus expression system (Invitrogen).
Sf-21 cells were seeded to achieve 1×10^6 cells/mL in 100 mL of Sf-900 II SFM medium (Invitrogen) which contains 10% fetal calf serum and then cultured at 27° C. for 24 hrs. To express ASK1 in cells, 0.15 mL of the recombinant baculovirus virus stock was added to cells, and the then cultured for 60 hrs. The cells were separated from the culture solution by centrifugation at 3000 rpm for 10 min and washed once with PBS. The cells were suspended in 10 mL of lysis buffer (25 mM HEPES (pH 7.5), 1% Triton X, 130 mM NaCl, 1 mM EDTA, 1 mM DTT, 25 mM (3-glycerophosphate, Protease inhibitor complete (Roche), 1 mM sodium orthovanadate) and ruptured by four times of treatment with a homogenizer (POLYTRON) at 20000 rpm for 30 seconds. Active ASK1 protein was purified from a supernatant obtained by centrifugal separation at 40000 rpm for 45 min using anti-FLAG M2 Affinity Gel (Sigma).
Scintillation Assay for Measuring the Inhibitory Effect of Exemplified Compounds of the Invention Against ASK1
The test compounds (2.5 μL) dissolved in DMSO were added to wells containing 37.5 μL of the reaction solution (25 mM HEPES (pH 7.5), 10 mM magnesium acetate, 1 mM DTT) including 30 ng of active ASK1 protein and 1 μg of myelin basic protein (Wako), and incubated at room temperature for 5 min. To start the reaction, 10 μL of ATP solution (2.5 μM ATP, 0.1 μCi [γ-^32P]ATP) was added to wells. After incubating at room temperature for 30 min, the reaction was terminated by adding 50 μL of 20% TCA solution. The reaction solution was incubated at 4° C. for 30 min and an acid-insoluble fraction was transferred onto a GF/C filter (Packard) with Cell Harvester (Packard), and washed with 250 mM phosphoric acid. After drying at 45° C. for 60 min., 40 μL of Microscint 0 (Packard) was added and the radioactivity was measured with TopCount (Packard). The concentrations (IC50 value) of the test compounds necessary for 50% inhibition of kinase activity were calculated by PRISM 3.0 (Graphpad Software).
Target sequence in this assay (Q99683 650-1374): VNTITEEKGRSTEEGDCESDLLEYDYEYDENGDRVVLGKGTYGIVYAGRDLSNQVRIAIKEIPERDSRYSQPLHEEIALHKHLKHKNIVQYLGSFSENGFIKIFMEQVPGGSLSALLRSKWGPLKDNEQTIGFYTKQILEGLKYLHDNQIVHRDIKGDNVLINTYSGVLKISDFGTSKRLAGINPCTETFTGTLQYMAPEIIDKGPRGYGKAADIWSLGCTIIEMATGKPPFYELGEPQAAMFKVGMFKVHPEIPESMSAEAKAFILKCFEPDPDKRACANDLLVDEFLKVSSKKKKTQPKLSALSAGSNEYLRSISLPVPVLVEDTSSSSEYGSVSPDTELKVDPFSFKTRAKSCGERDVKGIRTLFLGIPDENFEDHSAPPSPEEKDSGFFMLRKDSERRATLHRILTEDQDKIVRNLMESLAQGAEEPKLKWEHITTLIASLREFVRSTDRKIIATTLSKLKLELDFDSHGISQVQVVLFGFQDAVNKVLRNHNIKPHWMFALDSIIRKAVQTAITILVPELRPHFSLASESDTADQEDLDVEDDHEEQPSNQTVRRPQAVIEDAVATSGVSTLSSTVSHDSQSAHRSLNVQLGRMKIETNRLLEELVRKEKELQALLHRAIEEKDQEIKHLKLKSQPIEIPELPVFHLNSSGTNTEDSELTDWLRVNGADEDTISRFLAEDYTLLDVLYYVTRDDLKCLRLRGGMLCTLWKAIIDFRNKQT

Data set [2] addresses T1, ASK1. Description: Homogeneous Time-Resolved Fluorescence (HTRF) assay for inhibitory effect against ASK1 (Example C; KinEASE STK S3 kit). The settings on record: 25 nM ASK1, 100 μM ATP, read-out: Enzyme Activity C IC50. The format is biochemical.
From the text: as §1
Target sequence in this assay (Q99683 649-946): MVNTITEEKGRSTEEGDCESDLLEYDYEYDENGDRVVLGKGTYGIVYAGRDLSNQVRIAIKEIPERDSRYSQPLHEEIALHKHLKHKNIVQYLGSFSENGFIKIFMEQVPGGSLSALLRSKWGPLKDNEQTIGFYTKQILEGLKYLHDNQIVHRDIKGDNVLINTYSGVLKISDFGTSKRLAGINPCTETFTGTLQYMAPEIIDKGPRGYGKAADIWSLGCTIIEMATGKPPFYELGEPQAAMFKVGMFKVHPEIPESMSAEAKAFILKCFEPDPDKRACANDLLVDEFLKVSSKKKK
Homogeneous Time-Resolved Fluorescence (HTRF) Assay for Measuring the Inhibitory Effect of Exemplified Compounds of the Invention Against ASK1
Recombinant human ASK1 is purchased from Millipore (Cat #14-606). The enzymatic assay of ASK1 is set up by using HTRF® KinEASE™ STK S3 kit, the Universal Assay for Serine/Threonine Kinases kit from CisBio.
The inhibitory properties of compounds to ASK1 may be determined using a white 384-well-plate format under the following reaction conditions: 25 nM ASK1, 1 μM CisBio STK S3-biotion peptide, 100 μM ATP, and 1%-2% DMSO in kinase assay buffer of 50 mM HEPES, pH 7.3, 10 mM NaCl, 10 mM MgCl2, 0.01% Brij35, 0.2 mM EDTA, and 1 mM DTT. Reaction product is determined quantitatively by HTRF after the addition of detection reagent SA-XL665 and STK-antibody-cryptate.
The assay reaction may be initiated as follows: 2 μl of the mixture of 3 μM CisBio STK S3-biotion peptide and 300 μM ATP with 2 μl of test compound (2 fold serial dilutions for 11 data points for each inhibitor) containing 3%-6% DMSO are added to each well of the plate, followed by the addition of 2 μL of 75 nM ASK1 to initiate the reaction (final enzyme concentration was 25 nM for ASK1). The reaction mixture may then be incubated at room temperature for 1 hour, and quenched and developed by the addition of 6 μL of 100-fold diluted STK-antibody-Cryptate and 250 nM SA-XL665 in Cisbio HTRF detection buffer (50 mM HEPES, pH7.0, 0.1% BSA, 0.8 M KF, and 20 mM EDTA). The fluorescence intensity is measured at 620 nm (Cryptate) and 665 nm (XL665) after a 1-2 hour incubation at room temperature. A ratio is calculated (665/620) for each well and is fitted to the standard IC50 curve to determine inhibition constants (IC50).
A general note: In TR-FRET formats the signal depends on donor and acceptor labels being close together.

The compound `CCn1cc(Cl)c2cnc(NC(=O)c3ccc([C@@](C)(O)CO)cc3)cc21` [Compound 14, (R)—N-(3-chloro-1-ethyl-1H-pyrrolo[3,2-c]pyridin-6-yl)-4-(1,2-dihydroxypropan-2-yl)benzamide] displayed a melting point of 224.4 to 225.1 °C. Also, the IC50 in data set [1] was determined as 6 nM. The half-inhibitory concentration (IC50) in data set [2] was determined as 16 nM.

For `CCn1cc(Cl)c2cnc(NC(=O)c3ccc([C@](C)(O)CO)cc3)cc21` [Compound 26, (S)—N-(3-chloro-1-ethyl-1H-pyrrolo[3,2-c]pyridin-6-yl)-4-(1,2-dihydroxypropan-2-yl)benzamide], the melting point was in the range of 223 to 223.9 °C. In data set [1], the IC50 came out at 9 nM. Further, the half-inhibitory concentration (IC50) in data set [2] is 12 nM.

In turn, `Cn1cc(Cl)c2cnc(NC(=O)c3ccc([C@](C)(O)CO)cc3)cc21` [Compound 29, (S)—N-(3-chloro-1-methyl-1H-pyrrolo[3,2-c]pyridin-6-yl)-4-(1,2-dihydroxypropan-2-yl)benzamide] yielded a melting point of 210 to 212 °C. In addition, the IC50 in data set [2] amounted to 38 nM.

In the case of `Cn1c(Cl)c(Cl)c2cnc(NC(=O)c3ccc([C@](C)(O)CO)cc3)cc21` [Compound 30, (S)—N-(2,3-dichloro-1-methyl-1H-pyrrolo[3,2-c]pyridin-6-yl)-4-(1,2-dihydroxypropan-2-yl)benzamide], the melting point was in the range of 205 to 208 °C.

Compound `Cn1cc(Cl)c2cnc(NC(=O)c3ccc([C@@](C)(O)CO)cc3)cc21` [Compound 31, (R)—N-(3-chloro-1-methyl-1H-pyrrolo[3,2-c]pyridin-6-yl)-4-(1,2-dihydroxypropan-2-yl)benzamide] had a melting point of 210 to 212 °C. Also, the IC50 in data set [2] was 19 nM.
